According to patent US20070293514A1, “Triazolopyrimidines” (priority 2003, published 2007):

Test: logP by HPLC (EEC Directive 79/831 Annex V. A8, gradient method)
Format: physicochemical
Conditions: acetonitrile/0.1% aqueous phosphoric acid

Question: Which chromatographic logP does the source give for `C[Si](C)(C)CNc1c(-c2ccc(F)cc2Cl)c(Cl)nc2ncnn12` [Example 1] here?
Answer: 3.61

Question: For `CC(Nc1c(-c2c(F)cccc2Cl)c(Cl)nc2ncnn12)[Si](C)(C)C` (stereo not drawn) [Example 5], which logP is on record?
Answer: 3.79

Question: Which chromatographic logP does the source give for `Cc1nc2nc(Cl)c(-c3cc(F)ccc3F)c(NC(C)[Si](C)(C)C)n2n1` (stereo not drawn) [Example 17] here?
Answer: 3.73

Question: Which chromatographic logP does the source give for `Cc1nc2nc(Cl)c(-c3cc(F)ccc3F)c(NC[Si](C)(C)C)n2n1` [Example 18] here?
Answer: 3.4

Question: With `C[Si](C)(C)CNc1c(-c2cc(F)ccc2F)c(Cl)nc2ncnn12` [Example 39] as the molecule, how does the chromatographic logP read?
Answer: 3.26

Question: With `CC(Nc1c(-c2ccccc2Cl)c(Cl)nc2ncnn12)[Si](C)(C)C` (stereo not drawn) [Example 7] as the molecule, how does the logP read?
Answer: 3.83

Question: With `CC(Nc1c(-c2ccc(F)cc2Cl)c(Cl)nc2ncnn12)[Si](C)(C)C` (stereo not drawn) [Example 6] as the molecule, how does the logP read?
Answer: 3.95

Question: With `CC(C)c1nc2nc(Cl)c(-c3ncc(C(F)(F)F)cc3Cl)c(NC[Si](C)(C)C)n2n1` [Example 8] as the molecule, how does the logP read?
Answer: 4.51

Question: With `C[Si](C)(C)CNc1c(-c2ncncc2F)c(Cl)nc2ncnn12` [Example 41] as the molecule, how does the logP read?
Answer: 2.28

Question: For `CC(Nc1c(-c2cc(F)ccc2F)c(Cl)nc2ncnn12)[Si](C)(C)C` (stereo not drawn) [Example 40], which chromatographic logP is on record?
Answer: 3.57

Question: Which chromatographic logP does the source give for `CC(Nc1c(-c2cc(F)ccc2F)c(Cl)nc2nc(C3CC3)nn12)[Si](C)(C)C` (stereo not drawn) [Example 14] here?
Answer: 4.35

Question: With `C[Si](C)(C)CNc1c(-c2c(F)cccc2Cl)c(Cl)nc2ncnn12` [Example 3] as the molecule, how does the logP read?
Answer: 3.43

Question: Which logP does the source give for `CC(Nc1c(-c2ccccc2Cl)c(Cl)nc2nc(C3CC3)nn12)[Si](C)(C)C` (stereo not drawn) [Example 21] here?
Answer: 4.66

Question: With `CC(Nc1c(-c2ncccc2C(F)(F)F)c(Cl)nc2ncnn12)[Si](C)(C)C` (stereo not drawn) [Example 10] as the molecule, how does the logP read?
Answer: 3.06

Question: With `CCC(C)c1c(Cl)nc2ncnn2c1Cl` (stereo not drawn) [5,7-dichloro-6-sec-butyl[1,2,4]triazolo[1,5-a]pyrimidine] as the molecule, how does the chromatographic logP read?
Answer: 2.4

Question: For `C[Si](C)(C)CNc1c(-c2ncncc2Cl)c(Cl)nc2ncnn12` [Example 24], which logP is on record?
Answer: 2.44

Question: Which chromatographic logP does the source give for `C[Si](C)(C)CNc1c(-c2c(F)cc(F)cc2F)c(Cl)nc2ncnn12` [Example 4] here?
Answer: 3.39

Question: For `C[Si](C)(C)CNc1c(-c2c(F)cccc2Cl)c(Cl)nc2nc(C3CC3)nn12` [Example 12], which logP is on record?
Answer: 4.22

Question: Which chromatographic logP does the source give for `CCC(C)c1c(O)n2ncnc2[nH]c1=O` (stereo not drawn) [6-sec-butyl-7-hydroxy[1,2,4]triazolo[1,5-a]pyrimidin-5(4H)-one] here?
Answer: 0.7

Question: Which logP does the source give for `C[Si](C)(C)CNc1c(-c2ccccc2Cl)c(Cl)nc2nc(C3CC3)nn12` [Example 20] here?
Answer: 4.23

Question: With `CC(Nc1c(-c2c(F)cc(F)cc2F)c(Cl)nc2ncnn12)[Si](C)(C)C` (stereo not drawn) [Example 2] as the molecule, how does the chromatographic logP read?
Answer: 3.71

Question: Which logP does the source give for `CC(Nc1c(-c2ncncc2F)c(Cl)nc2nc(C3CC3)nn12)[Si](C)(C)C` (stereo not drawn) [Example 19] here?
Answer: 2.99

Question: For `CC(C)c1nc2nc(Cl)c(-c3ncncc3F)c(NC(C)[Si](C)(C)C)n2n1` (stereo not drawn) [Example 9], which logP is on record?
Answer: 3.61

Question: With `CC(C)c1nc2nc(Cl)c(-c3cc(F)ccc3F)c(NC[Si](C)(C)C)n2n1` [Example 16] as the molecule, how does the chromatographic logP read?
Answer: 4.21

Question: Which logP does the source give for `C[Si](C)(C)CNc1c(-c2ncncc2F)c(Cl)nc2nc(C3CC3)nn12` [Example 22] here?
Answer: 3.02

Question: Which logP does the source give for `CC(Nc1c(-c2ncncc2F)c(Cl)nc2ncnn12)[Si](C)(C)C` (stereo not drawn) [Example 42] here?
Answer: 2.57

Question: For `CC(C)c1nc2nc(Cl)c(-c3cc(F)ccc3F)c(NC(C)[Si](C)(C)C)n2n1` (stereo not drawn) [Example 15], which chromatographic logP is on record?
Answer: 4.58

Question: For `Cc1nc2nc(Cl)c(-c3ncncc3F)c(NC(C)[Si](C)(C)C)n2n1` (stereo not drawn) [Example 28], which logP is on record?
Answer: 2.73

Question: Which logP does the source give for `CC(Nc1c(-c2ncncc2Cl)c(Cl)nc2ncnn12)[Si](C)(C)C` (stereo not drawn) [Example 23] here?
Answer: 2.70

Question: For `CC(Nc1c(-c2c(F)cccc2Cl)c(Cl)nc2nc(C3CC3)nn12)[Si](C)(C)C` (stereo not drawn) [Example 11], which logP is on record?
Answer: 4.65

Question: Which chromatographic logP does the source give for `C[Si](C)(C)CNc1c(-c2cc(F)ccc2F)c(Cl)nc2nc(C3CC3)nn12` [Example 13] here?
Answer: 3.99

Question: With `CCC(C)c1c(Cl)nc2ncnn2c1NC[Si](C)(C)C` (stereo not drawn) [Example 26, 5-chloro-6-sec-butyl-7-trimethylsilylmethylamino[1,2,4]triazolo[1,5-a]pyrimidine] as the molecule, how does the chromatographic logP read?
Answer: 3.34

Question: For `Cc1nc2nc(Cl)c(-c3ncncc3F)c(NC[Si](C)(C)C)n2n1` [Example 27], which logP is on record?
Answer: 2.43
